Measured values reported in publication PMC10539361, “Allosteric modulation of the fish taste receptor type 1 (T1R) family by the extracellular chloride ion” (Scientific Reports, 2023).
Where a chain is given by its changes, count along the chain named.

Columns and labels:
[1] = target: T1, mfT1R2a/mfT1R3 (Oryzias latipes, UniProt Q2MHK2+Q2MHK5); test: Effect of anions, cations and osmotic pressure on cellular responses, cells in 10 mM Cl- buffer, mfT1R2a/mfT1R3; format: cell-based, medaka fish
T1 sequence (Q2MHK5 20-819): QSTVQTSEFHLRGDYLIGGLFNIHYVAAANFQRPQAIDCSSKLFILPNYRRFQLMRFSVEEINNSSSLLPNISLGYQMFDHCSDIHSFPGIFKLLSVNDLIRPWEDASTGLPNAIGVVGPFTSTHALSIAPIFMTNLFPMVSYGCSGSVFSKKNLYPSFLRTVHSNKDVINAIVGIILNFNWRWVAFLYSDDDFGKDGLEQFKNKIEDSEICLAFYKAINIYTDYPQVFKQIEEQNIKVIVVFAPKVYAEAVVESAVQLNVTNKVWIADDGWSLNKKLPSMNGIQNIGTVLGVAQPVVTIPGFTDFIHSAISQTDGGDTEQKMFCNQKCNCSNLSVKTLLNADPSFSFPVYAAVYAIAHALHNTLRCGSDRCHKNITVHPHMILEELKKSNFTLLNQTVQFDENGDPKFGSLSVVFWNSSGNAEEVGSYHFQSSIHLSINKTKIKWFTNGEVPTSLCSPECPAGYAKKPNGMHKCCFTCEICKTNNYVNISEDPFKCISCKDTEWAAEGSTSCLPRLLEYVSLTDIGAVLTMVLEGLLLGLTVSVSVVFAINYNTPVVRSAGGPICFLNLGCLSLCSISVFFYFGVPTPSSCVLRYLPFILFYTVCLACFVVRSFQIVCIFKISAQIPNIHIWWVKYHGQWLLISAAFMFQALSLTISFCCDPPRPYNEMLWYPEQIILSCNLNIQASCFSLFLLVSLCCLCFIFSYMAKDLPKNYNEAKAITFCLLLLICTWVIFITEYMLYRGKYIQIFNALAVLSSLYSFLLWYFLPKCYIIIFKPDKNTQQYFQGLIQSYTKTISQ
T1 sequence (Q2MHK2 20-853): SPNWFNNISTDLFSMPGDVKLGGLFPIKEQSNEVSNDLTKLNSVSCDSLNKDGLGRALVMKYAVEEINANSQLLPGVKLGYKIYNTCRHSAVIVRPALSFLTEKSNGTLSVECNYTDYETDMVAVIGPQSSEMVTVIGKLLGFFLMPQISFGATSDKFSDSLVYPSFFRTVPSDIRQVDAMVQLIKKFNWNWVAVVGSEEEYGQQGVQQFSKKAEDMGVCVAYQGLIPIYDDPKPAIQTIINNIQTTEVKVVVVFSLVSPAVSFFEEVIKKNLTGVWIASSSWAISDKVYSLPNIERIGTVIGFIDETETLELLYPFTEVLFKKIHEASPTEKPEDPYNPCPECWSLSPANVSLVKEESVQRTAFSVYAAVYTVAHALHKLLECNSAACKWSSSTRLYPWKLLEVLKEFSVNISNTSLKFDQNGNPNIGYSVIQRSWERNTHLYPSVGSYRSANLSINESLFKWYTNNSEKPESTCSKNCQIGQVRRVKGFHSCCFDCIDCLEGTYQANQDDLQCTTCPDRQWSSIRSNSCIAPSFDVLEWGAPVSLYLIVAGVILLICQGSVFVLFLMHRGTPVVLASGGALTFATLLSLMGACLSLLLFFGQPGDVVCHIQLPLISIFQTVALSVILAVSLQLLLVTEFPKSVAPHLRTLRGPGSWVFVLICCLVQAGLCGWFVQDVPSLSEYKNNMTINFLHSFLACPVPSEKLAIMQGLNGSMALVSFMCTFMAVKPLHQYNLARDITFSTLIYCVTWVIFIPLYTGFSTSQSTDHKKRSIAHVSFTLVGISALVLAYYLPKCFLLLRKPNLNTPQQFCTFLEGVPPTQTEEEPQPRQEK
Protocol: Cells were seeded in 96-well plates coated with ε-poly-L-lysine at approximately 70,000 cells per well. […] Fluorescence changes were monitored at 2 s intervals, as described above. […] Three independent experiments were conducted for each receptor, and representative results are shown as the mean ± SEM (n = 3 replicates). Statistical tests were conducted using KyPlot version 6.0 (KyensLab Inc., Tokyo, Japan). Statistical significance was set at p < 0.05.

[2] = target: T2, hT1R2/hT1R3 (Homo sapiens, UniProt Q7RTX0+Q8TE23); test: Ca2+ mobilization dose-response assay, stable cells expressing hT1R2/hT1R3 with G16gust44; format: cell-based; details: for sensitivity in high (141.4 mM) Cl- buffer vs 10 mM Cl- buffer: 10 mM vs 141.4 mM Cl- buffer
T2 construct: expressed in transfected cells
T2 sequence (Q8TE23 20-839): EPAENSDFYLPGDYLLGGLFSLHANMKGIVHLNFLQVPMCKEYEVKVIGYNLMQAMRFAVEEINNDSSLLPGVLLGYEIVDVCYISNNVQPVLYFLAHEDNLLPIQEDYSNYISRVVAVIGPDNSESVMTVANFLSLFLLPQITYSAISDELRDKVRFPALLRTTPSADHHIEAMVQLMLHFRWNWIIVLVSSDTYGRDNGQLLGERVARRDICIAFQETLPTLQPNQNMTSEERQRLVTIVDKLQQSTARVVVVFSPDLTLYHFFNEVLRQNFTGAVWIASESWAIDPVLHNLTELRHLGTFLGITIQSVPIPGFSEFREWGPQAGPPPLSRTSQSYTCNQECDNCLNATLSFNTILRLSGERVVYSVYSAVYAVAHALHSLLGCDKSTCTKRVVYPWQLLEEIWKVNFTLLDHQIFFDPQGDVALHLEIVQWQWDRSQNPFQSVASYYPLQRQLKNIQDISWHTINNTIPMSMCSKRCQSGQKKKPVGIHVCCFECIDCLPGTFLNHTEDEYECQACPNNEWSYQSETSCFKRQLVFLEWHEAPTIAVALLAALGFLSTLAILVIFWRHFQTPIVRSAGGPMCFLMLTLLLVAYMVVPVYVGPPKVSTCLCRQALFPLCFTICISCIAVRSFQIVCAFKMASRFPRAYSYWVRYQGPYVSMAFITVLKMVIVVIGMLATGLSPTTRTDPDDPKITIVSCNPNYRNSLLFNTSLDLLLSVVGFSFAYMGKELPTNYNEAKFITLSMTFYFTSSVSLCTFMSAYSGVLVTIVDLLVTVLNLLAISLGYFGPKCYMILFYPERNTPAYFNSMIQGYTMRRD
T2 sequence (Q7RTX0 21-852): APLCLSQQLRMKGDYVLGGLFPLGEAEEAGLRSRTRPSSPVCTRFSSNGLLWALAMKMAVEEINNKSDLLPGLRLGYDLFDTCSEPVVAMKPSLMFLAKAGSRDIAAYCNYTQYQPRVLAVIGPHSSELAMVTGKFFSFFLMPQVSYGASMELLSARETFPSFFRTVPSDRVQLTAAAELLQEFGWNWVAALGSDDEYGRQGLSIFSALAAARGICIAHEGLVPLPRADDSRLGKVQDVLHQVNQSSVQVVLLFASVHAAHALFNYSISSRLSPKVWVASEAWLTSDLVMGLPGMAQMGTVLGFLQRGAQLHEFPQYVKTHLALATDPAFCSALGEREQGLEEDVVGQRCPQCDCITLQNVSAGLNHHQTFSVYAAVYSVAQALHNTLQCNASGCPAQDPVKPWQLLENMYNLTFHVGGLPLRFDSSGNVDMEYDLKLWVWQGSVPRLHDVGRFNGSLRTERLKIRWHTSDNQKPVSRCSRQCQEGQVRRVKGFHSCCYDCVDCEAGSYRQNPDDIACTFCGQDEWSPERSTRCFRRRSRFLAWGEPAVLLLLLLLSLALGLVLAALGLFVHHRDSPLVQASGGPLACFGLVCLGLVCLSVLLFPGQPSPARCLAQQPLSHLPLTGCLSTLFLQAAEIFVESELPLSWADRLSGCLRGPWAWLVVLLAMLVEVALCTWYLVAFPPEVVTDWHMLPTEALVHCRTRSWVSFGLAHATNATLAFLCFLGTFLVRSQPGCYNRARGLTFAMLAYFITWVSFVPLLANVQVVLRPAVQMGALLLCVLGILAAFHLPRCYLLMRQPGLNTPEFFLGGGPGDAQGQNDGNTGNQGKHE
Protocol: (§1) The buffers with lower Cl^− were prepared by progressively replacing NaCl, KCl, CaCl2 and MgCl2 in the buffer with gluconate equivalents[20]. The pH was adjusted to 7.4 with NaOH. Ligands were diluted with the assay buffers at the desired concentrations.
Measurements of the responses of the cells by cell-based assay based on the intracellular Ca^2+ mobilization were carried out as described previously with some modifications[20],[34],[46],[47]. […] The cells were seeded in 96-well plates (clear-bottomed CellBIND surface plate, Corning, Glendale, AZ, USA) coated with ε-poly-L-lysine (Cosmo Bio, Tokyo, Japan) at approximately 70,000 cells per well. After 20 h, the medium was removed and replaced with high Cl^− buffer. After 3 h 30 min incubation at 27 °C, cells were loaded with 5 µM calcium-indicator dye Fluo-8 AM (AAT Bioquest, Sunnyvale, CA, USA) diluted in high Cl^− buffer. After incubation for 30 min at 27 °C, the cells were washed with buffers containing appropriate concentrations of Cl^−. The cellular assay was initiated after 3–5 min of resting and was completed within 5 min. The measurements were made using FlexStation 3 (Molecular Devices, Sunnyvale, CA, USA) at 27 °C. Fluorescence changes (i.e., excitation at 485 nm and emission at 525 nm with a cutoff at 515 nm) were monitored at 2 s intervals. A 100-µL aliquot of assay buffer supplemented with 2 × ligands was added at 20 s, and scanning was continued for an additional 40 s. The response of each well was determined as ∆RFU (delta relative fluorescent units), which was calculated as (maximum fluorescent value)—(minimum fluorescent value). […] Such normalized data from more than three independent experiments are reported as the mean ± standard error of the mean (SEM). Dose‒response fitting curves were calculated by Prism 9 (GraphPad Software, San Diego, CA) using nonlinear regression (log(agonist) vs. response—variable slope), based on the integrated data from the several independent experiments.

[3] = target: T3, hT1R2/hT1R3 T102E (Homo sapiens, UniProt Q7RTX0+Q8TE23, T102E); test: Ca2+ mobilization dose-response assay, site X mutant hT1R2/hT1R3 T102E; details: EC50, [Cl-]o=10 mM; unit inferred
T3 sequence (Q8TE23 20-839): T2 sequence (Q8TE23 20-839)
T3 sequence (Q7RTX0 21-852 T102E): T2 sequence (Q7RTX0 21-852) with T82E
Protocol: as §1
Measurements of the responses of the cells by cell-based assay based on the intracellular Ca^2+ mobilization were carried out as described previously with some modifications[20],[34],[46],[47]. Cell lines stably expressing T1R2, T1R3 and chimeric G-protein α-subunit, G16gust44[48], were constructed using the Flp-In pcDNA5/FRT complete system (Thermo Fisher Scientific, Waltham, MA, USA) described in our previous studies[34],[46]. […] Fluorescence changes (i.e., excitation at 485 nm and emission at 525 nm with a cutoff at 515 nm) were monitored at 2 s intervals. […] The response of each well was determined as ∆RFU (delta relative fluorescent units), which was calculated as (maximum fluorescent value)—(minimum fluorescent value). […] Dose‒response fitting curves were calculated by Prism 9 (GraphPad Software, San Diego, CA) using nonlinear regression (log(agonist) vs. response—variable slope), based on the integrated data from the several independent experiments.

SMILES | additional anion concentration needed to significantly increase the response intensity to L-Gln ([1]; added to 10 mM Cl- buffer with 200 µM L-Gln) | response to fixed concentration of L-Gln on coapplication ([1]; coapplied with 200 µM L-Gln, cells in 10 mM Cl- buffer, final [Cl-]o up to 60 mM) | cellular response to the salt alone ([1]; without agonist, cells in 10 mM Cl- buffer) | sensitivity in high (141.4 mM) Cl- buffer vs 10 mM Cl- buffer [2] | EC50 ([2]; [Cl-]o=10 mM, unit inferred) | EC50 [3]
[Br-].[Na+] [NaBr] | 5 mM | enhanced | did not elicit |  |  | 
OC[C@H]1O[C@H](O[C@]2(CCl)O[C@H](CCl)[C@@H](O)[C@@H]2O)[C@H](O)[C@@H](O)[C@H]1Cl [sucralose, Sucralose] |  |  |  | comparable | 92.5 µM | 169 µM
N[C@H](Cc1c[nH]c2ccccc12)C(=O)O [D-tryptophan] |  |  |  | comparable |  | 
